Molecular target: human activated kallikrein enzyme (Homo sapiens (Human), UniProt P03952)
Assay: Plasma kallikrein inhibition assay with fluorogenic peptide substrate, 500 pM activated kallikrein format
Format: biochemical
Settings: 500 pM activated kallikrein; 300 uM Pro-Phe-Arg-7-amido-4-methylcoumarin substrate; 30 min preincubation, 10 min reaction at RT; read-out: Primary Dose Response Assay: Average EC50
Method: Example compounds were evaluated for inhibition of the human activated kallikrein enzyme in two formats of an assay employing a fluorogenic peptide substrate. In one assay format, the concentrations of reagents were as follows: 20 mM Tris pH 7.5, 1 mM EDTA, 150 mM sodium chloride, 0.1% PEG-400, 0.1% Triton X-100, […], 300 uM Pro-Phe-Arg-7-amido-4-methylcoumarin substrate. Prior to reaction initiation with substrate, enzyme and inhibitors were preincubated for 30 min at RT. After initiation with substrate, reactions were incubated for 10 min at RT and fluorescence emission at 460 nm from 380 nm excitation measured with a microplate reader. In another assay format, the concentrations of reagents were as follows: 20 mM Tris pH 7.5, 1 mM EDTA, 150 mM sodium chloride, 0.1% PEG-400, 0.1% Triton X-100, 5 pM activated kallikrein enzyme, 300 uM Pro-Phe-Arg-7-amido-4-methylcoumarin substrate. Prior to reaction initiation with substrate, enzyme and inhibitors were preincubated for 30 min at RT. After initiation with substrate, reactions were incubated for 18 h at RT and fluorescence emission at 460 nm from 380 nm excitation measured with a microplate reader.
Table II provides the results of the assay in the format with 500 pM activated kallikrein assay.
Table III provides comparative plasma kallikrein inhibition potency in the assay format with 500 pM activated kallikrein assay (described in detail in the preceding example).

Chain of human activated kallikrein enzyme (P03952 391-638): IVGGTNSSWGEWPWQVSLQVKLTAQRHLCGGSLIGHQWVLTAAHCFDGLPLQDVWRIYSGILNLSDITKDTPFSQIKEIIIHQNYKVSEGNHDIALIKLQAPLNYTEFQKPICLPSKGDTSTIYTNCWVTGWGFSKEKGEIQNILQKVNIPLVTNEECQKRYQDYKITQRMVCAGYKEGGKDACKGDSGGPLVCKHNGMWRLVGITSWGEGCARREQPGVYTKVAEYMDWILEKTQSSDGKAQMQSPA
Chain of human activated kallikrein enzyme (P03952 20-390 partner): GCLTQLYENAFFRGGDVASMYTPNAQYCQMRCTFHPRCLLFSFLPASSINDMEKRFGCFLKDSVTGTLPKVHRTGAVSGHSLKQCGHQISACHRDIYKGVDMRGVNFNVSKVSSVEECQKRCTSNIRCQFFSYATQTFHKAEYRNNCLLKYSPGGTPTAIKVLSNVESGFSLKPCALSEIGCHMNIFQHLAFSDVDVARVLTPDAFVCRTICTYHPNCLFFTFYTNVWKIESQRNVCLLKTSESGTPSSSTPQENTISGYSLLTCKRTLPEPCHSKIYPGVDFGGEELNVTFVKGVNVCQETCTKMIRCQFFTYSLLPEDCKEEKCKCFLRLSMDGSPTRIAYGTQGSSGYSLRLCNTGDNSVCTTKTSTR

| Compound | EC50 [µM] |
| --- | --- |
| Cc1cc(N)nc(C)c1CNC(=O)c1cn(Cc2cn3cc(C4CC4)ccc3n2)nn1 [Example I-26, N-((6-amino-2,4-dimethylpyridin-3-yl)methyl)-1-((6-cyclopropylimidazo[1,2-a]pyridin-2-yl)methyl)-1H-1,2,3-triazole-4-carboxamide] | ≤ 0.001 |
| COc1ccc(-n2cnnn2)c(CNC(=O)c2cn(Cc3cn4cc(C5CC5)cc(C(O)C5COC5)c4n3)nn2)c1F (centres unmarked) [Example I-27, 1-((6-cyclopropyl-8-(hydroxy(oxetan-3-yl)methyl)imidazo[1,2-a]pyridin-2-yl)methyl)-N-(2-fluoro-3-methoxy-6-(1H-tetrazol-1-yl)benzyl)-1H-1,2,3-triazole-4-carboxamide] | ≤ 0.001 |
| COc1ccc(-n2cnnn2)c(CNCc2cn(Cc3cn4cc(C5CC5)ccc4n3)nn2)c1F [Example I-29, 1-(1-((6-cyclopropylimidazo[1,2-a]pyridin-2-yl)methyl)-1H-1,2,3-triazol-4-yl)-N-(2-fluoro-3-methoxy-6-(1H-tetrazol-1-yl)benzyl)methanamine] | 0.001 to 0.01 |
| O=S(=O)(NCc1c(-n2cnnn2)ccc(Cl)c1F)c1cn(Cc2cn3cc(C4CC4)ccc3n2)nn1 [Example I-30, N-(3-chloro-2-fluoro-6-(1H-tetrazol-1-yl)benzyl)-1-((6-cyclopropylimidazo[1,2-a]pyridin-2-yl)methyl)-1H-1,2,3-triazole-4-sulfonamide] | 0.1 to 2 |
| COc1ccc(-n2cnnn2)c(C(C)NC(=O)c2cn(Cc3cn4cc(C5CC5)ccc4n3)nn2)c1F (centres unmarked) [Example I-31, 1-((6-cyclopropylimidazo[1,2-a]pyridin-2-yl)methyl)-N-(1-(2-fluoro-3-methoxy-6-(1H-tetrazol-1-yl)phenyl)ethyl)-1H-1,2,3-triazole-4-carboxamide] | 0.001 to 0.01 |
| N=C(N)c1ccc(CNS(=O)(=O)c2cnn(Cc3cn4cc(C5CC5)ccc4n3)c2)cc1 [Example I-32, 4-(((1-((6-cyclopropylimidazo[1,2-a]pyridin-2-yl)methyl)-1H-pyrazole)-4-sulfonamido)methyl)benzimidamide] | 0.001 to 0.01 |
| NCc1ccc(CNS(=O)(=O)c2cnn(Cc3cn4cc(C5CC5)ccc4n3)c2)cc1 [Example I-33, N-(4-(aminomethyl)benzyl)-1-((6-cyclopropylimidazo[1,2-a]pyridin-2-yl)methyl)-1H-pyrazole-4-sulfonamide] | 2 to 7.1 |
| N#Cc1ccc(CNS(=O)(=O)c2cnn(Cc3cn4cc(C5CC5)ccc4n3)c2)cc1 [Example I-34, N-(4-cyanobenzyl)-1-((6-cyclopropylimidazo[1,2-a]pyridin-2-yl)methyl)-1H-pyrazole-4-sulfonamide] | > 7.1 |
| O=S(=O)(NCCc1ccc(Cl)cc1)c1cnn(Cc2cn3cc(C4CC4)ccc3n2)c1 [Example I-35, N-(4-chlorophenethyl)-1-((6-cyclopropylimidazo[1,2-a]pyridin-2-yl)methyl)-1H-pyrazole-4-sulfonamide] | > 7.1 |
| O=S(=O)(NCCOc1ccccc1)c1cnn(Cc2cn3cc(C4CC4)ccc3n2)c1 [Example I-36, 1-((6-cyclopropylimidazo[1,2-a]pyridin-2-yl)methyl)-N-(2-phenoxyethyl)-1H-pyrazole-4-sulfonamide] | > 7.1 |
| CC(NS(=O)(=O)c1cnn(Cc2cn3cc(C4CC4)ccc3n2)c1)c1ccc(Cl)cc1 (centres unmarked) [Example I-37] | > 7.1 |
| CC(NS(=O)(=O)c1cnn(Cc2cn3cc(C4CC4)ccc3n2)c1)c1cccc(Cl)c1 (centres unmarked) [Example I-38, N-(1-(3-chlorophenyl)ethyl)-1-((6-cyclopropylimidazo[1,2-a]pyridin-2-yl)methyl)-1H-pyrazole-4-sulfonamide] | > 7.1 |
| Cc1cc(C(=N)N)cc(C)c1CNS(=O)(=O)c1cnn(Cc2cn3cc(C4CC4)ccc3n2)c1 [Example I-39, 4-(((1-((6-cyclopropylimidazo[1,2-a]pyridin-2-yl)methyl)-1H-pyrazole)-4-sulfonamido)methyl)-3,5-dimethylbenzimidamide] | 0.01 to 0.1 |
| COc1ccc(-n2cnnn2)c(CNS(=O)(=O)c2cn(Cc3cn4cc(C5CC5)ccc4n3)nn2)c1F [Example I-40, 1-((6-cyclopropylimidazo[1,2-a]pyridin-2-yl)methyl)-N-(2-fluoro-3-methoxy-6-(1H-tetrazol-1-yl)benzyl)-1H-1,2,3-triazole-4-sulfonamide] | 0.01 to 0.1 |
| Cc1cc(CN)cc(C)c1CNS(=O)(=O)c1cnn(Cc2cn3cc(C4CC4)ccc3n2)c1 [Example I-41, N-(4-(aminomethyl)-2,6-dimethylbenzyl)-1-((6-cyclopropylimidazo[1,2-a]pyridin-2-yl)methyl)-1H-pyrazole-4-sulfonamide] | 2 to 7.1 |
| O=S(=O)(NCc1ccc(Cl)cc1)c1cnn(Cc2cn3cc(C4CC4)ccc3n2)c1 [Example I-42, N-(4-chlorobenzyl)-1-((6-cyclopropylimidazo[1,2-a]pyridin-2-yl)methyl)-1H-pyrazole-4-sulfonamide] | > 7.1 |
| Cc1cc(C#N)cc(C)c1CNS(=O)(=O)c1cnn(Cc2cn3cc(C4CC4)ccc3n2)c1 [Example I-43, N-(4-cyano-2,6-dimethylbenzyl)-1-((6-cyclopropylimidazo[1,2-a]pyridin-2-yl)methyl)-1H-pyrazole-4-sulfonamide] | > 7.1 |
| O=S(=O)(NCCc1cccc(Cl)c1)c1cnn(Cc2cn3cc(C4CC4)ccc3n2)c1 [Example I-44, N-(3-chlorophenethyl)-1-((6-cyclopropylimidazo[1,2-a]pyridin-2-yl)methyl)-1H-pyrazole-4-sulfonamide] | > 7.1 |
| COc1ccc(-n2cnnn2)c(CNS(=O)(=O)c2cnn(Cc3cn4cc(C5CC5)ccc4n3)c2)c1F [Example I-45, 1-((6-cyclopropylimidazo[1,2-a]pyridin-2-yl)methyl)-N-(2-fluoro-3-methoxy-6-(1H-tetrazol-1-yl)benzyl)-1H-pyrazole-4-sulfonamide] | 0.001 to 0.01 |
| Cc1cc(N)nc(C)c1CNS(=O)(=O)c1cnn(Cc2cn3cc(C4CC4)ccc3n2)c1 [Example I-46, N-((6-amino-2,4-dimethylpyridin-3-yl)methyl)-1-((6-cyclopropylimidazo[1,2-a]pyridin-2-yl)methyl)-1H-pyrazole-4-sulfonamide] | 0.1 to 2 |
| O=S(=O)(NCc1cccc(Cl)c1)c1cnn(Cc2cn3cc(C4CC4)ccc3n2)c1 [Example I-47, N-(3-chlorobenzyl)-1-((6-cyclopropylimidazo[1,2-a]pyridin-2-yl)methyl)-1H-pyrazole-4-sulfonamide] | > 7.1 |
| COc1ccc(S(=O)(=O)N2CCOCC2)c(CNC(=O)c2cn(Cc3cn4cc(C5CC5)ccc4n3)nn2)c1F [Example I-48, 1-((6-cyclopropylimidazo[1,2-a]pyridin-2-yl)methyl)-N-(2-fluoro-3-methoxy-6-(morpholinosulfonyl)benzyl)-1H-1,2,3-triazole-4-carboxamide] | 0.001 to 0.01 |
| COc1ccc(-c2c[nH]nn2)c(CNC(=O)c2cn(Cc3cn4cc(C5CC5)ccc4n3)nn2)c1F [Example I-49, 1-((6-cyclopropylimidazo[1,2-a]pyridin-2-yl)methyl)-N-(2-fluor-3-methoxy-6-(1H-1,2,3-triazol-4-yl)benzyl)-1H-1,2,3-triazole-4-carboxamide] | 0.01 to 0.1 |
| COc1ccc(-c2c[nH]nn2)c(CNC(=O)c2cn(Cc3cn4cc(C5CC5)ccc4n3)nn2)c1F [Example I-50] | > 7.1 |
| CS(=O)(=O)c1ccccc1CNC(=O)c1cn(Cc2cn3cc(C4CC4)ccc3n2)nn1 [Example I-51, 1-((6-cyclopropylimidazo[1,2-a]pyridin-2-yl)methyl)-N-(2-(methylsulfonyl)benzyl)-1H-1,2,3-triazole-4-carboxamide] | 0.1 to 2 |
| COc1ccc(-n2cnc(C(F)(F)F)n2)c(CNC(=O)c2cn(Cc3cn4cc(C5CC5)ccc4n3)nn2)c1F [Example I-52, 1-((6-cyclopropylimidazo[1,2-a]pyridin-2-yl)methyl)-N-(2-fluoro-3-methoxy-6-(3-(trifluoromethyl)-1H-1,2,4-triazol-1-yl)benzyl)-1H-1,2,3-triazole-4-carboxamide] | ≤ 0.001 |
| COc1ccc(S(C)(=O)=O)c(CNC(=O)c2cn(Cc3cn4cc(C5CC5)ccc4n3)nn2)c1F [Example I-53, 1-((6-cyclopropylimidazo[1,2-a]pyridin-2-yl)methyl)-N-(2-fluoro-3-methoxy-6-(methylsulfonyl)benzyl)-1H-1,2,3-triazole-4-carboxamide] | 0.1 to 2 |
| COc1ccc(-n2cnnn2)c(CNC(=O)c2ccn(Cc3cn4cc(C5CC5)ccc4n3)c2)c1F [Example I-54, 1-((6-cyclopropylimidazo[1,2-a]pyridin-2-yl)methyl)-N-(2-fluoro-3-methoxy-6-(1H-tetrazol-1-yl)benzyl)-1H-pyrrole-3-carboxamide] | ≤ 0.001 |
| COc1ccc(-n2cnnn2)c(CNC(=O)c2cn(Cc3cn4cc(C5CC5)ccc4n3)cn2)c1F [Example I-55, 1-((6-cyclopropylimidazo[1,2-a]pyridin-2-yl)methyl)-N-(2-fluoro-3-methoxy-6-(1H-tetrazol-1-yl)benzyl)-1H-imidazole-4-carboxamide] | ≤ 0.001 |

— patent US11787796B2, “Plasma Kallikrein inhibitors and uses thereof” (Takeda Pharmaceutical Company Limited, priority 2019, dated 2023)
